Measured values as given in patent US7981907B2 (dated 2011).

Compared with `CC(=O)c1ccc(-c2ccccc2C[S+]([O-])CC(N)=O)cc1` (stereo not drawn), `Cc1ccc(C[S+]([O-])CC(N)=O)cc1-c1ccccc1` (stereo not drawn) is lower in melting point: 155 to 160 °C for the first, 153 °C for the second.

In the case of `Cc1noc(C)c1-c1cccc(C[S+]([O-])CC(N)=O)c1` (stereo not drawn), the melting point is reported as 34 to 43 °C.
